Numbered stars: 1 amine (or outer) side, 2 acyl side, 3 side chain; on linkers, the order of the positions; unused ones are H or OH. Bridge positions count the residues as written; N and C are the ends. Square brackets hold non-standard residues; d marks the D form. Peptide text beside a SMILES is read from it. * marks the point of attachment. ξ: configuration not given here. Phe(4-CONH2) = NC(=O)c1ccc(C[C@H](N)C(=O)O)cc1; Bip = N[C@@H](Cc1ccc(-c2ccccc2)cc1)C(=O)O; NH(CH2)14COOH = O=C(O)CCCCCCCCCCCCCCN*; Phe(3-Me) = Cc1cccc(C[C@H](N)C(=O)O)c1; γGlu = O=C(O)[C@H](CCC(=O)[*:2])N[*:1]; Val(3-OH) = CC(C)(O)[C@H](N)C(=O)O; 4Pal = N[C@@H](Cc1ccncc1)C(=O)O; Cha = N[C@@H](CC1CCCCC1)C(=O)O; Cit = NC(=O)NCCC[C@H](N)C(=O)O; Thr(3ξ) = CC(O)[C@H](N)C(=O)O; 12Ado = NCCCCCCCCCCCC(=O)O; hSer = N[C@@H](CCO)C(=O)O; Carboxymethyl = O=C(O)C*; Orn = NCCC[C@H](N)C(=O)O; Pra = C#CC[C@H](N)C(=O)O; Aun = NCCCCCCCCCCC(=O)O; Dab = NCC[C@H](N)C(=O)O; Dap = NC[C@H](N)C(=O)O; AEEA = NCCOCCOCC(=O)O
The molecules below were run against T1, PD-1/PD-L1 interaction (PE-labeled human PD-L1-Ig binding to Jurkat cell line over-expressing human PD-1) (Homo sapiens, UniProt Q15116) (assay: Jurkat-PD-1 Cell Binding High-Content Screening Assay (CBA)). Conditions: Jurkat cell line over-expressing human PD-1; PE-labeled PD-L1-Ig 20 nM final; read-out: Jurkat hPD1-PDL1 IC50.
T1 construct: expressed in transfected cells; host or cells: Jurkat
T1 sequence (Q15116 25-288): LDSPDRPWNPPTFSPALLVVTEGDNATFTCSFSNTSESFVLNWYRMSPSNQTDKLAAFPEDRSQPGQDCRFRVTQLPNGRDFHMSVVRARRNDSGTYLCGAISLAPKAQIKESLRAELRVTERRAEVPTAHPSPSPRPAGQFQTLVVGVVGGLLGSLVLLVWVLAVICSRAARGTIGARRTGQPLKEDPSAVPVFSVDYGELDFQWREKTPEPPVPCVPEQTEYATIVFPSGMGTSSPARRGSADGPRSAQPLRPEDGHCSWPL
Assay type: cell-based
Procedure, shortened: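 Jurkat cells over-expressing human PD-1 (8×10^3 per well, DMEM/10% FCS) preincubated with compound 2 h at 37° C, then PE-labeled human PD-L1-Ig (20 nM final) added for 1 h. Cells fixed with paraformaldehyde, Hoechst-stained, and bound fluorescence quantified by high-content imaging.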

SMILES | IC50 [µM]
Cc1cccc(C[C@@H]2NC(=O)[C@H](CC(=O)O)NC(=O)[C@H](Cc3ccc(OCC(=O)O)cc3)NC(=O)[C@H](CCCNC(=N)N)NC(=O)CSC[C@@H](C(=O)N[C@@H](CCN)C(=O)NCCCCCCCCCCC(=O)O)NC(=O)[C@H](C(C)O)NC(=O)[C@H](C(C)C)NC(=O)[C@H](CC3CCCCC3)NC(=O)[C@H](CCN)NC(=O)[C@@H](CC(C)C)NC(=O)[C@H](CCCN)NC(=O)[C@H](Cc3ccc(O)cc3)NC(=O)[C@H](Cc3ccc(-c4ccccc4)cc3)NC(=O)[C@H](C(C)C)NC2=O)c1 (stereo partly drawn) [Compound 3457] ({CH2CO}-RY(Carboxymethyl)D[Phe(3-Me)]V[Bip]Y[Orn][dL][Dab][Cha]V[Thr(3ξ)]C[Dab][Aun]-OH; thioether N-14) | 0.0374
CC(C)C[C@H]1NC(=O)[C@H](CCCN)NC(=O)[C@H](C(C)C)NC(=O)[C@H](Cc2ccc(-c3ccccc3)cc2)NC(=O)[C@H](C(C)C)NC(=O)[C@H](Cc2c[nH]c3ccccc23)NC(=O)[C@H](CC(=O)O)NC(=O)[C@H](Cc2ccc(OCC(=O)O)cc2)NC(=O)[C@H](Cc2ccncc2)NC(=O)CSC[C@@H](C(=O)N[C@@H](CCN)C(=O)NCCCCCCCCCCC(=O)O)NC(=O)[C@H](CN)NC(=O)[C@H](C(C)C)NC(=O)[C@H](CC2CCCCC2)NC(=O)[C@H](CCN)NC1=O [Compound 3294] ({CH2CO}-[4Pal]Y(Carboxymethyl)DWV[Bip]V[Orn][dL][Dab][Cha]V[Dap]C[Dab][Aun]-OH; thioether N-14) | 0.0155
Cc1cccc(C[C@@H]2NC(=O)[C@H](CC(=O)O)NC(=O)[C@H](Cc3ccc(OCC(=O)O)cc3)NC(=O)[C@H](C(C)O)NC(=O)CSC[C@@H](C(=O)N[C@H](CC(N)=O)C(=O)NCCCCCCCCCCC(=O)O)NC(=O)[C@H](CO)NC(=O)[C@H](C(C)C)NC(=O)[C@H](CC3CCCCC3)NC(=O)[C@H](CCN)NC(=O)[C@@H](CC(C)C)NC(=O)[C@H](CCCN)NC(=O)[C@H](Cc3ccc(O)cc3)NC(=O)[C@H](Cc3ccc(-c4ccccc4)cc3)NC(=O)[C@H](C(C)C)NC2=O)c1 (stereo partly drawn) [Compound 3432] ({CH2CO}-[Thr(3ξ)]Y(Carboxymethyl)D[Phe(3-Me)]V[Bip]Y[Orn][dL][Dab][Cha]VSC[dN][Aun]-OH; thioether N-14) | 0.0114
CC(C)C[C@H]1NC(=O)[C@H](CCCN)NC(=O)[C@H](C(C)C)NC(=O)[C@H](Cc2ccc(-c3ccccc3)cc2)NC(=O)[C@H](C(C)C)NC(=O)[C@H](Cc2c[nH]c3ccccc23)NC(=O)[C@H](CC(=O)O)NC(=O)[C@H](Cc2ccc(OCC(=O)O)cc2)NC(=O)[C@H](CN)NC(=O)CSC[C@@H](C(=O)N[C@@H](C)C(=O)N[C@@H](CN)C(=O)NCCCCCCCCCCC(=O)O)NC(=O)[C@H]([C@@H](C)O)NC(=O)[C@H](C(C)C)NC(=O)[C@H](CC2CCCCC2)NC(=O)[C@H](Cc2cnc[nH]2)NC1=O [Compound 1081] ({CH2CO}-[Dap]Y(Carboxymethyl)DWV[Bip]V[Orn][dL]H[Cha]VTCA[Dap][Aun]-OH; thioether N-14) | 0.0285
C#CC[C@H](NC(=O)COCCOCCNC(=O)[C@H](CCCCN)NC(=O)[C@@H]1CSCC(=O)N[C@@H](Cc2ccncc2)C(=O)N[C@@H](Cc2ccc(OCC(=O)O)cc2)C(=O)N[C@@H](CC(=O)O)C(=O)N[C@@H](Cc2c[nH]c3ccccc23)C(=O)N[C@@H](C(C)C)C(=O)N[C@@H](Cc2ccc(-c3ccccc3)cc2)C(=O)N[C@@H]([C@@H](C)CC)C(=O)N[C@@H](CCCN)C(=O)N[C@H](CC(C)C)C(=O)N[C@@H](CCN)C(=O)N[C@@H](CC(C)C)C(=O)N[C@@H](C(C)C)C(=O)N[C@@H]([C@@H](C)O)C(=O)N1)C(=O)NCCCCCCCCCCC(=O)O [Compound 1208] ({CH2CO}-[4Pal]Y(Carboxymethyl)DWV[Bip]I[Orn][dL][Dab]LVTCK[AEEA][Pra][Aun]-OH; thioether N-14) | 0.0269
CC(C)C[C@@H]1NC(=O)[C@H](Cc2c[nH]c3ccccc23)NC(=O)[C@H](CC(=O)O)NC(=O)[C@H](Cc2ccc(OCC(=O)O)cc2)NC(=O)[C@H](C(C)O)NC(=O)CSC[C@@H](C(=O)N[C@@H](CCN)C(=O)NCCCCCCCCCCC(=O)O)NC(=O)[C@H](CCCCN)NC(=O)[C@H](C(C)O)NC(=O)[C@H](CC2CCCCC2)NC(=O)[C@H](CCN)NC(=O)[C@@H](CC(C)C)NC(=O)[C@H](CCCN)NC(=O)[C@H](Cc2ccc(O)cc2)NC(=O)[C@H](Cc2ccc(-c3ccccc3)cc2)NC1=O (stereo partly drawn) [Compound 3694] ({CH2CO}-[Thr(3ξ)]Y(Carboxymethyl)DWL[Bip]Y[Orn][dL][Dab][Cha][Thr(3ξ)]KC[Dab][Aun]-OH; thioether N-14) | 0.0728
Cc1cccc(C[C@@H]2NC(=O)[C@H](CC(=O)O)NC(=O)[C@H](Cc3ccc(OCC(=O)O)cc3)NC(=O)[C@H](CN)NC(=O)CSC[C@@H](C(=O)N[C@@H](CC(=O)O)C(=O)NCCOCCOCC(=O)NCCCCCCCCCCC(=O)O)NC(=O)[C@H]([C@@H](C)O)NC(=O)[C@H](C(C)C)NC(=O)[C@H](CC3CCCCC3)NC(=O)[C@H](CCN)NC(=O)[C@@H](CC(C)C)NC(=O)[C@H](CCCN)NC(=O)[C@H](CCCNC(N)=O)NC(=O)[C@H](Cc3ccc(-c4ccccc4)cc3)NC(=O)[C@H](C(C)C)NC2=O)c1 [Compound 1036] ({CH2CO}-[Dap]Y(Carboxymethyl)D[Phe(3-Me)]V[Bip][Cit][Orn][dL][Dab][Cha]VTCD[AEEA][Aun]-OH; thioether N-14) | 0.0068
Cc1cccc(C[C@@H]2NC(=O)[C@H](CC(=O)O)NC(=O)[C@H](Cc3ccc(OCC(=O)O)cc3)NC(=O)[C@H](Cc3ccc(C(N)=O)cc3)NC(=O)CSC[C@@H](C(=O)N[C@@H](CCN)C(=O)NCCCCCCCCCCC(=O)O)NC(=O)[C@H](CO)NC(=O)[C@H](C(C)(C)O)NC(=O)[C@H](CC3CCCCC3)NC(=O)[C@H](CCN)NC(=O)[C@@H](CC(C)C)NC(=O)[C@H](CCCN)NC(=O)[C@H](Cc3ccc(OCC(=O)O)cc3)NC(=O)[C@H](Cc3ccc(-c4ccccc4)cc3)NC(=O)[C@H](Cc3ccc(OCC(=O)O)cc3)NC2=O)c1 [Compound 2218] ({CH2CO}-[Phe(4-CONH2)]Y(Carboxymethyl)D[Phe(3-Me)]Y(Carboxymethyl)[Bip]Y(Carboxymethyl)[Orn][dL][Dab][Cha][Val(3-OH)]SC[Dab][Aun]-OH; thioether N-14) | 0.0071
Cc1cccc(C[C@@H]2NC(=O)[C@H](CC(=O)O)NC(=O)[C@H](Cc3ccc(OCC(=O)O)cc3)NC(=O)[C@H](CN)NC(=O)CSC[C@@H](C(=O)N[C@@H](CCC(=O)NCCCCCCCCCCC(=O)O)C(=O)O)NC(=O)[C@H]([C@@H](C)O)NC(=O)[C@H](C(C)C)NC(=O)[C@H](CC3CCCCC3)NC(=O)[C@H](CCN)NC(=O)[C@@H](CC(C)C)NC(=O)[C@H](CCCN)NC(=O)[C@H](CCCNC(N)=O)NC(=O)[C@H](Cc3ccc(-c4ccccc4)cc3)NC(=O)[C@H](C(C)C)NC2=O)c1 [Compound 1024] ({CH2CO}-[Dap]Y(Carboxymethyl)D[Phe(3-Me)]V[Bip][Cit][Orn][dL][Dab][Cha]VTC[γGlu][Aun]-OH; thioether N-14) | 0.0066

Next, values leading:

IC50 [µM] | SMILES
0.308 | Cc1cccc(C[C@@H]2NC(=O)[C@H](CC(=O)O)NC(=O)[C@H](Cc3ccc(OCC(=O)O)cc3)NC(=O)[C@H](CN)NC(=O)CSC[C@@H](C(=O)N[C@@H](CCN)C(=O)NCCCCCCCCCCCCCCC(=O)O)NC(=O)[C@H](C(C)O)NC(=O)[C@H](C(C)C)NC(=O)[C@H](CC3CCCCC3)NC(=O)[C@H](CCN)NC(=O)[C@@H](CC(C)C)NC(=O)[C@H](CCCN)NC(=O)[C@H](CCCNC(N)=O)NC(=O)[C@H](Cc3ccc(-c4ccccc4)cc3)NC(=O)[C@H](C(C)C)NC2=O)c1 (stereo partly drawn) [Compound 3127] ({CH2CO}-[Dap]Y(Carboxymethyl)D[Phe(3-Me)]V[Bip][Cit][Orn][dL][Dab][Cha]V[Thr(3ξ)]C[Dab]-{NH(CH2)14COOH}; thioether N-14)
0.0199 | Cc1cccc(C[C@@H]2NC(=O)[C@H](CC(=O)O)NC(=O)[C@H](Cc3ccc(OCC(=O)O)cc3)NC(=O)[C@H](Cc3c[nH]cn3)NC(=O)CSC[C@@H](C(=O)N[C@@H](CCN)C(=O)NCCCCCCCCCCC(=O)O)NC(=O)[C@H](C(C)O)NC(=O)[C@H](C(C)C)NC(=O)[C@H](CC3CCCCC3)NC(=O)[C@H](CCN)NC(=O)[C@@H](CC(C)C)NC(=O)[C@H](CCCN)NC(=O)[C@H](CCCNC(N)=O)NC(=O)[C@H](Cc3ccc(-c4ccccc4)cc3)NC(=O)[C@H](C(C)C)NC2=O)c1 (stereo partly drawn) [Compound 3453] ({CH2CO}-HY(Carboxymethyl)D[Phe(3-Me)]V[Bip][Cit][Orn][dL][Dab][Cha]V[Thr(3ξ)]C[Dab][Aun]-OH; thioether N-14)
0.0236 | Cc1cccc(C[C@@H]2NC(=O)[C@H](CC(=O)O)NC(=O)[C@H](Cc3ccc(OCC(=O)O)cc3)NC(=O)[C@H](CO)NC(=O)CSC[C@@H](C(=O)N[C@@H](CCO)C(=O)N[C@@H](CO)C(=O)NCCCCCCCCCCCC(=O)O)NC(=O)[C@H](C(C)O)NC(=O)[C@H](C(C)C)NC(=O)[C@H](CC3CCCCC3)NC(=O)[C@H](CCN)NC(=O)[C@@H](CC(C)C)NC(=O)[C@H](CCCN)NC(=O)[C@H](CCCNC(N)=O)NC(=O)[C@H](Cc3ccc(-c4ccccc4)cc3)NC(=O)[C@H](C(C)C)NC2=O)c1 (stereo partly drawn) [Compound 3569] ({CH2CO}-SY(Carboxymethyl)D[Phe(3-Me)]V[Bip][Cit][Orn][dL][Dab][Cha]V[Thr(3ξ)]C[hSer]S[12Ado]-OH; thioether N-14)
0.0201 | Cc1cccc(C[C@@H]2NC(=O)[C@H](CC(=O)O)NC(=O)[C@H](Cc3ccc(OCC(=O)O)cc3)NC(=O)[C@H](CCCNC(=N)N)NC(=O)CSC[C@@H](C(=O)N[C@@H](CCN)C(=O)NCCCCCCCCCCC(=O)O)NC(=O)[C@H]([C@@H](C)O)NC(=O)[C@H](C(C)C)NC(=O)[C@H](CC3CCCCC3)NC(=O)[C@H](CCN)NC(=O)[C@@H](CC(C)C)NC(=O)[C@H](CCN)NC(=O)[C@H](CCCNC(N)=O)NC(=O)[C@H](Cc3ccc(-c4ccccc4)cc3)NC(=O)[C@H](C(C)C)NC2=O)c1 [Compound 2777] ({CH2CO}-RY(Carboxymethyl)D[Phe(3-Me)]V[Bip][Cit][Dab][dL][Dab][Cha]VTC[Dab][Aun]-OH; thioether N-14)
